Among the data in patent US11578054B2, “Compounds useful as immunomodulators” (Bristol-Myers Squibb Company, priority 2018, dated 2023) are IC50 values, retold here.

pIC50: −log10 of the molar value.

For this assay, the target named is PD-1/PD-L1 (Homo sapiens (Human), UniProt Q9NZQ7). Briefly: PD-1/PD-L1 Homogenous Time-Resolved Fluorescence (HTRF) binding assay. Conditions: PD-L1-His 10 nM, PD-1-Ig 20 nM. The source says:
The ability of the compounds of formula (I) to bind to PD-L1 was investigated using a PD-1/PD-L1 Homogenous Time-Resolved Fluorescence (HTRF) binding assay.
Homogenous Time-Resolved Fluorescence (HTRF) binding assay.
The interaction of PD-1 and PD-L1 can be assessed using soluble, purified preparations of the extracellular domains of the two proteins. The PD-1 and PD-L1 protein extracellular domains were expressed as fusion proteins with detection tags, for PD-1, the tag was the Fc portion of Immunoglobulin (PD-1-Ig) and for PD-L1 it was the 6 histidine motif (PD-L1-His). All binding studies were performed in an HTRF assay buffer consisting of dPBS supplemented with 0.1% […] bovine serum albumin and 0.05% (v/v) Tween-20. For the h/PD-L1-His binding assay, inhibitors were pre-incubated with PD-L1-His (10 nM final) for 15m in 4 μl of assay buffer, followed by addition of PD-1-Ig (20 nM final) in 1 µl of assay buffer and further incubation for 15m. HTRF detection was achieved using europium crypate-labeled anti-Ig (1 nM final) and allophycocyanin (APC) labeled anti-His (20 nM final). Antibodies were diluted in HTRF detection buffer and 5 μl was dispensed on top of the binding reaction. The reaction mixture was allowed to equilibrate for 30 minutes and the resulting signal (665 nm/620 nm ratio) was obtained using an EnVision fluorometer. Additional binding assays were established between the human proteins PD-1-Ig/PD-L2-His (20 & 5 nM, respectively) and CD8O-His/PD-L1-Ig (100 & 10 nM, respectively).
Recombinant Proteins: Human PD-1 (25-167) with a C-terminal human Fc domain of immunoglobulin G (Ig) epitope tag [hPD-1 (25-167)-3S-IG] and human PD-L1 (18-239) with a C-terminal His epitope tag [hPD-L1(18-239)-TVMV-His] were expressed in HEK293T cells and purified sequentially by ProteinA affinity chromatography and size exclusion chromatography. Human PD-L2-His and CD8O-His was obtained through commercial sources.
The table below lists the IC50 values for representative examples of this disclosure measured in the PD-1/PD-L1 Homogenous Time-Resolved Fluorescence (HTRF) binding assay.

Chain of PD-1/PD-L1 (Q9NZQ7 other isoform, or with tags, fused parts or gaps): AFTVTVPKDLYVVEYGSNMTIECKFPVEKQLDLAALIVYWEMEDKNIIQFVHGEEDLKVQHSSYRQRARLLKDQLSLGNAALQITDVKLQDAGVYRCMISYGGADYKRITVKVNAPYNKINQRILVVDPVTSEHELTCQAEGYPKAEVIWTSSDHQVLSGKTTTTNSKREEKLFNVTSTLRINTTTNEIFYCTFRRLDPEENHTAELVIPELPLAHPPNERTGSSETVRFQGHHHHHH

`N#Cc1cncc(COc2cc(OC3CCc4c(-c5cccc(OCCCNC[C@H](O)CO)c5Cl)cccc43)c(Cl)cc2CO)c1` (stereo partly drawn) [Example 1020, 5-((4-Chloro-5-((4-(2-chloro-3-(3-(((S)-2,3-dihydroxypropyl)amino)propoxy)phenyl)-2,3-dihydro-1H-inden-1-yl)oxy)-2-(hydroxymethyl)phenoxy)methyl)nicotinonitrile] had a pIC50 of 7.96.
In turn, `N#Cc1cncc(COc2cc(OC3CCc4c(-c5cccc(OCCCNC[C@H](O)CO)c5Cl)cccc43)c(Cl)cc2CN[C@@H](CCO)C(=O)O)c1` (stereo partly drawn) [Example 1021, (5-Chloro-4-((4-(2-chloro-3-(3-(((S)-2,3-dihydroxypropyl)amino)propoxy)phenyl)-2,3-dihydro-1H-inden-1-yl)oxy)-2-((5-cyanopyridin-3-yl)methoxy)benzyl)-L-homoserine] had a pIC50 of 9.00.
